Data taken from US8906868B2, “Aminoglycoside derivatives” (Rempex Pharmaceuticals, Inc., priority 2010, dated 2014).
≈ marks a conversion by molar mass, not a printed value. Like-named read-outs stand apart in the source and are kept apart here.

Key:
[1] = tested on: Citrobacter freundii CFM1000 ATCC 8090; test: MIC, representative strains; type: cell-based; conditions: ATCC8090, read-out: MIC Citrobacter freundii CFM1000 ATCC 8090
Description: (§1) To compare microbiological activity of the test compounds, minimum inhibitory concentrations (MIC.s) were determined. Antibiotic MICs were obtained using the broth microdilution method according to Clinical and Laboratory Standards Institute (CLSI) approved guidelines (Methods for dilution antimicrobial susceptibility tests for bacteria that grow aerobically; approved standard—7th ed. CLSI document M7-A7. Clinical and Laboratory Standards Institute, Wayne, Pa., incorporated herein by reference in its entirety). Antibiotics were dissolved as specified by CLSI (Performance standards for antimicrobial susceptibility testing; Seventeenth informational supplement. CLSI document M100-S17. Clinical and Laboratory Standards Institute, Wayne, Pa., incorporated herein by reference in its entirety), and were serially diluted 2-fold in cation adjusted Mueller Hinton Broth (CaMHB) at 2× concentration. Bacterial inoculums were prepared in CaMHB by suspension of a colony from an agar plate that was prepared the previous day to obtain a final concentration of 5×10^5CFU/ml. The plates were incubated for 18 hours at 35° C. […] MIC.s were determined by reading the turbidity of plate wells using a SpectraMax Plus384 plate reader (Molecular Devices, Sunnyvale, Calif., USA) at 600 nm and were confirmed by visual inspection.

[2] = tested on: Enterobacter aerogenes EAM1000 ATCC 13048; test: MIC, representative strains; type: cell-based; conditions: Klebsiella aerogenes, ATCC13048, read-out: MIC Enterobacter aerogenes EAM1000 ATCC 13048
Description: as §1

[3] = tested on: Staphylococcus aureus SAM1001 ATCC 25923; test: MIC, representative strains; type: cell-based; conditions: ATCC25923, read-out: MIC Staphylococcus aureus SAM1001 ATCC 25923
Description: as §1

[4] = tested on: Pseudomonas aeruginosa PAM2859 multiple pumps deleted; test: MIC, representative strains; type: cell-based; conditions: read-out: MIC Pseudomonas aeruginosa PAM2859 multiple pumps deleted
Description: as §1

[5] = tested on: Enterobacter cloacae ECLM1000 ATCC 13047; test: MIC, representative strains; type: cell-based; conditions: ATCC13047, read-out: MIC Enterobacter cloacae ECLM1000 ATCC 13047
Description: as §1

[6] = tested on: Pseudomonas aeruginosa PAM2900 PAM2859/pXY; test: MIC, representative strains; type: cell-based; conditions: read-out: MIC Pseudomonas aeruginosa PAM2900 PAM2859/pXY
Description: as §1

ECM6003 rmtB = test: microbe, parasite or virus in culture; type: cell-based, Escherichia coli; conditions: Escherichia coli
Procedure, shortened: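 Broth microdilution per CLSI M7-A7 in cation-adjusted Mueller Hinton broth with 2-fold serial dilutions and 5×10^5 CFU/ml inoculum. Incubated 18 hours at 35 °C; MIC read by turbidity at 600 nm and confirmed visually.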

ACM1005 ATCC 19004 = test: MIC, broth microdilution; type: cell-based, Acinetobacter baumannii; conditions: Acinetobacter baumannii, ATCC19004
Procedure, shortened: (§2)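 CLSI broth microdilution in CaMHB; 2-fold serial dilutions; 5×10^5 CFU/ml final inoculum; 18 h, 35° C; OD600 turbidity plus visual check.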

mice = test: Acute toxicity in mice (minimal lethal dose); type: in vivo; conditions: IV tail vein, observed 24 hours, lowest dose lethal for at least one mouse
Description: The acute toxicity of 44 was compared to that of 45 in mice. Ascending doses of each compound were administered to mice (n=3) IV through the tail vein. […] Acute toxicity was reported as the minimal lethal dose, or MLD, defined as the lowest dose of a compound that is lethal for at least one mouse.

[7] = tested on: Acinetobacter baumannii (ATCC 19606); test: MIC, broth microdilution; conditions: Acinetobacter baumannii
PAM3073 aac(6′)-I = test: microbe, parasite or virus in culture; type: cell-based, Pseudomonas aeruginosa; conditions: Pseudomonas aeruginosa
Procedure, shortened: as §2

PAM3072 aac(6′)-II = test: microbe, parasite or virus in culture; type: cell-based, Pseudomonas aeruginosa; conditions: Pseudomonas aeruginosa
Procedure, shortened: as §2

[8] = tested on: Pseudomonas aeruginosa pa1060 ant(2″); test: MIC, strains expressing aminoglycoside modifying enzymes; type: cell-based; conditions: read-out: MIC Pseudomonas aeruginosa pa1060 ant(2″)
Description: as §1

[9] = tested on: Pseudomonas aeruginosa pa1061 aac(6′) (no efflux); test: as above; type: cell-based; conditions: read-out: MIC Pseudomonas aeruginosa pa1061 aac(6′) (no efflux)
Description: as §1

[10] = tested on: Escherichia coli ECM6012 armA; test: as above; type: cell-based; conditions: ECM6012ARMA, read-out: MIC Escherichia coli ECM6012 armA
Description: as §1

[11] = tested on: Escherichia coli ECM6005 aac(3)-II, aph(3′)-II; test: as above; type: cell-based; conditions: read-out: MIC Escherichia coli ECM6005 aac(3)-II, aph(3′)-II
Description: as §1

[12] = tested on: Providencia stuartii PSM1000 aac(2′); test: as above; type: cell-based; conditions: read-out: MIC Providencia stuartii PSM1000 aac(2′)
Description: as §1

[13] = tested on: Escherichia coli EC1003 aac(3)I; test: as above; type: cell-based; conditions: read-out: MIC Escherichia coli EC1003 aac(3)I
Description: as §1

[14] = tested on: Acinetobacter baumannii ACM1008 aac(3)-Ia; test: as above; type: cell-based; conditions: read-out: MIC Acinetobacter baumannii ACM1008 aac(3)-Ia
Description: as §1

[15] = tested on: Escherichia coli ECM6008 aac(3)-I, ant(3″); test: as above; type: cell-based; conditions: read-out: MIC Escherichia coli ECM6008 aac(3)-I, ant(3″)
Description: as §1

[16] = tested on: Klebsiella pneumonia (ATCC 43816); test: MIC, broth microdilution; conditions: Klebsiella pneumoniae
[17] = Table 3, read-out: Compound MIC on Bacterial Strains: ECM6003 rmtB
[18] = Table 8, read-out: MIC Escherichia coli ECM6003 rmtB
[19] = Table 4, read-out: Compound MIC on Bacterial Strains: Acinetobacter baumannii ACM1005 ATCC 19004
[20] = Table 7, read-out: MIC Acinetobacter baumannii ACM1005 ATCC 19004
[21] = ATCC19606, read-out: Compound MIC on Bacterial Strains: A. baumannii ATCC 19606
[22] = ATCC19606, read-out: MIC Acinetobacter baumannii ACM1003 ATCC 19606
[23] = Table 5, read-out: Compound MIC on Bacterial Strains: Pseudomonas aeruginosa PAM3073 aac(6′)-I
[24] = Table 8, read-out: MIC Pseudomonas aeruginosa PAM3073 aac(6′)-I, wt efflux
[25] = Table 5, read-out: Compound MIC on Bacterial Strains: Pseudomonas aeruginosa PAM3072 aac(6′)-II
[26] = Table 8, read-out: MIC Pseudomonas aeruginosa PAM3072 aac(6′)-II or III
[27] = ATCC43816, read-out: Compound MIC on Bacterial Strains: K. pneumonia ATCC 43816
[28] = ATCC43816, read-out: MIC Klebsiella pneumoniae KPM1001 ATCC 43816

SMILES: CN[C@@H]1C(O)[C@@H](OC2C(O)C(O[C@H]3O[C@H](CNC[C@@H](O)CO)CCC3N)[C@@H](N)C[C@H]2NC(=O)[C@@H](O)CN)OCC1(C)O (stereo partly drawn) [Compound 44]
- MIC [1]: < 1 µg/mL
- MIC [2]: < 1 µg/mL
- MIC [3]: < 1 µg/mL
- MIC [4]: < 1 µg/mL
- MIC [5]: < 1 µg/mL
- MIC [6]: > 8 µg/mL
- MIC (ECM6003 rmtB; [17]): > 8 µg/mL
- MIC (ECM6003 rmtB; [18]): > 8 µg/mL
- MIC (ACM1005 ATCC 19004; [19]): 1 to 8 µg/mL (≈ 1.64 to 13.1 µM)
- MIC (ACM1005 ATCC 19004; [20]): 1 to 8 µg/mL (≈ 1.64 to 13.1 µM)
- minimal lethal dose (MLD) (mice): > 125 mg/kg
- MIC [7, 21]: > 8 µg/mL
- MIC [7, 22]: > 8 µg/mL
- MIC (PAM3073 aac(6′)-I; [23]): 1 to 8 µg/mL (≈ 1.64 to 13.1 µM)
- MIC (PAM3073 aac(6′)-I; [24]): 1 to 8 µg/mL (≈ 1.64 to 13.1 µM)
- MIC (PAM3072 aac(6′)-II; [25]): > 8 µg/mL
- MIC (PAM3072 aac(6′)-II; [26]): > 8 µg/mL
- MIC [8]: < 1 µg/mL
- MIC [9]: < 1 µg/mL
- MIC [10]: > 8 µg/mL
- MIC [11]: < 1 µg/mL
- MIC [12]: > 8 µg/mL
- MIC [13]: < 1 µg/mL
- MIC [14]: 1 to 8 µg/mL (≈ 1.64 to 13.1 µM)
- MIC [15]: < 1 µg/mL
- MIC [16, 27]: < 1 µg/mL
- MIC [16, 28]: < 1 µg/mL

SMILES: CN[C@@H]1[C@@H](O)[C@@H](O[C@@H]2[C@@H](O)[C@H](O[C@H]3O[C@H](CNC[C@H](O)CO)CC[C@H]3N)[C@@H](N)C[C@H]2NC(=O)[C@@H](O)CN)OC[C@]1(C)O [Compound 45, (S)-3-amino-N-((1R,2S,3S,4R,5S)-5-amino-4-((2R,3R,6S)-3-amino-6-(((S)-2,3-dihydroxypropylamino)methyl)tetrahydro-2H-pyran-2-yloxy)-2-((2R,3R,4R,5R)-3,5-dihydroxy-5-methyl-4-(methylamino)tetrahydro-2H-pyran-2-yloxy)-3-hydroxycyclohexyl)-2-hydroxypropanamide]
- MIC [1]: < 1 µg/mL
- MIC [2]: 1 to 8 µg/mL (≈ 1.64 to 13.1 µM)
- MIC [3]: < 1 µg/mL
- MIC [4]: < 1 µg/mL
- MIC [5]: < 1 µg/mL
- MIC [6]: > 8 µg/mL
- MIC (ECM6003 rmtB; [17]): > 8 µg/mL
- MIC (ECM6003 rmtB; [18]): > 8 µg/mL
- MIC (ACM1005 ATCC 19004; [19]): 1 to 8 µg/mL (≈ 1.64 to 13.1 µM)
- MIC (ACM1005 ATCC 19004; [20]): 1 to 8 µg/mL (≈ 1.64 to 13.1 µM)
- minimal lethal dose (MLD) (mice): 100 mg/kg
- MIC [7, 21]: > 8 µg/mL
- MIC [7, 22]: > 8 µg/mL
- MIC (PAM3073 aac(6′)-I; [23]): 1 to 8 µg/mL (≈ 1.64 to 13.1 µM)
- MIC (PAM3073 aac(6′)-I; [24]): 1 to 8 µg/mL (≈ 1.64 to 13.1 µM)
- MIC (PAM3072 aac(6′)-II; [25]): > 8 µg/mL
- MIC (PAM3072 aac(6′)-II; [26]): > 8 µg/mL
- MIC [8]: 1 to 8 µg/mL (≈ 1.64 to 13.1 µM)
- MIC [9]: < 1 µg/mL
- MIC [10]: > 8 µg/mL
- MIC [11]: < 1 µg/mL
- MIC [12]: > 8 µg/mL
- MIC [13]: < 1 µg/mL
- MIC [14]: 1 to 8 µg/mL (≈ 1.64 to 13.1 µM)
- MIC [15]: 1 to 8 µg/mL (≈ 1.64 to 13.1 µM)
- MIC [16, 27]: < 1 µg/mL
- MIC [16, 28]: < 1 µg/mL
